The text below walks through data of ChEMBL document CHEMBL3392959, “Iminosugars as a new class of cholinesterase inhibitors” (Bioorg Med Chem Lett, 2015).

In assay [1] the target is T1, Cholinesterase (Homo sapiens, UniProt P06276).
Description: Inhibition of human recombinant serum BuchE using butyrylthiocholine iodide as substrate by Ellman method
Assay [2] concerns the target T2, Acetylcholinesterase (Homo sapiens, UniProt P22303). Briefly: Inhibition of human recombinant AchE using acetylthiocholine iodide as substrate at 250 uM by Ellman method. For orientation: DTNB colorimetry detects thiols as they appear.
For assay [3], the target named is Acetylcholinesterase (Electrophorus electricus) (UniProt O42275). The assay is described as follows: Inhibition of electric eel AchE using acetylthiocholine iodide as substrate at 250 uM by Ellman method.
Acetylcholinesterase (Electrophorus electricus), sequence (O42275 24-633 limits assumed): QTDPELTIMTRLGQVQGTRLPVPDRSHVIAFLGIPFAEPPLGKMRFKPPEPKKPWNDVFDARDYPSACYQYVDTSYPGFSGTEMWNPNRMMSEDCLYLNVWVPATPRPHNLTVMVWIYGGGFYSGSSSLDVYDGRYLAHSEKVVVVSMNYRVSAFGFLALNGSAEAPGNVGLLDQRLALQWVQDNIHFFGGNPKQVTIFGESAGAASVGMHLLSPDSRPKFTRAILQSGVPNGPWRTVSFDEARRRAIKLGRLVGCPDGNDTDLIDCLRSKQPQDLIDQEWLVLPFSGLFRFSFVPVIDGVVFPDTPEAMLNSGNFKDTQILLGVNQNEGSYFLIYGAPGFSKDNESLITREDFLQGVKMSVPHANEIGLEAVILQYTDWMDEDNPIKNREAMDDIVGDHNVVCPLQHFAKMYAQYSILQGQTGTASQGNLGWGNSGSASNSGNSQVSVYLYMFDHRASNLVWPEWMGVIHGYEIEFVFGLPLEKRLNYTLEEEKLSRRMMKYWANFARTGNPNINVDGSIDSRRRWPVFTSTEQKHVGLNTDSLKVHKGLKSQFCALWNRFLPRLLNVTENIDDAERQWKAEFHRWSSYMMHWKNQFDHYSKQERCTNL
The target of assay [4] is T1, Cholinesterase. The assay is described as follows: Inhibition of human recombinant serum BuchE using butyrylthiocholine iodide as substrate at 250 uM by Ellman method.
For assay [5], the target named is T2, Acetylcholinesterase.
Description: Inhibition of human recombinant AchE using acetylthiocholine iodide as substrate by Ellman method
The target in assay [6] is Acetylcholinesterase (Electrophorus electricus, UniProt O42275). The assay is described as follows: Inhibition of electric eel AchE using acetylthiocholine iodide as substrate by Ellman method.
Acetylcholinesterase (Electrophorus electricus, UniProt O42275), sequence (O42275 whole entry): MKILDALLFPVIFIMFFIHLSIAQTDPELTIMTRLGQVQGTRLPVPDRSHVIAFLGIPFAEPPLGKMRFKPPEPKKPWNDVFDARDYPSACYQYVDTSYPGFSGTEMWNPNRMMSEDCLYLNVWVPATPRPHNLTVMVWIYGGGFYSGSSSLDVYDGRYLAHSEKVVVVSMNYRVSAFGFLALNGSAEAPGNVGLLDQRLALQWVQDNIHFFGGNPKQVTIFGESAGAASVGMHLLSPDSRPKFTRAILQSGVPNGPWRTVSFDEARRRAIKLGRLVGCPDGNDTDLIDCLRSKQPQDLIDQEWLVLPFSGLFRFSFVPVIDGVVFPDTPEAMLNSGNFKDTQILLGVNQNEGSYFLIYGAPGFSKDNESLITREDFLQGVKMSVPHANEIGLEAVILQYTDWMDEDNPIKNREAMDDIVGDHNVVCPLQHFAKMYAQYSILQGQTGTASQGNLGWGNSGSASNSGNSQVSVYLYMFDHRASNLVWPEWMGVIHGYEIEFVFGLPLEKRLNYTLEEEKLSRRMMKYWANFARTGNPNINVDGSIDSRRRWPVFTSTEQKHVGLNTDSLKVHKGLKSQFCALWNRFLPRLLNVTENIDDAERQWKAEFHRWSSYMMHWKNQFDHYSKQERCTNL

Activity calls are given as the source filed them. The rule behind the calls is not given here.

T1 sequence (P06276 whole entry): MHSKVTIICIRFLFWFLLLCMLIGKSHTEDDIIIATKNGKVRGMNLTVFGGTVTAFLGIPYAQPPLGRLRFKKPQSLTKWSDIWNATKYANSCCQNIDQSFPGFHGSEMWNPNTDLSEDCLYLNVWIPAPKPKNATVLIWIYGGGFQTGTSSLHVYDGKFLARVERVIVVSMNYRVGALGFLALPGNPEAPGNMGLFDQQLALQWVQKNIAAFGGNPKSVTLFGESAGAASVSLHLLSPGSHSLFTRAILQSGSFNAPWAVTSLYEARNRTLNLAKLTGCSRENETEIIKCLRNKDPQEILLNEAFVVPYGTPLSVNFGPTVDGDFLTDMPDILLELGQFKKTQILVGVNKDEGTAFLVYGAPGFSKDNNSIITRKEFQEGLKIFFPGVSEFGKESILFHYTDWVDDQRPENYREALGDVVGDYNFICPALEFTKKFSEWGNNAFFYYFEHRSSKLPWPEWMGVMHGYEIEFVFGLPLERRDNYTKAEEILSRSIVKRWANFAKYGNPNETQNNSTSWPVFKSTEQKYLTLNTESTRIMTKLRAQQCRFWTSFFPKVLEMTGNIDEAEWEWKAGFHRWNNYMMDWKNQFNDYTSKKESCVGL
T2 sequence (P22303 whole entry): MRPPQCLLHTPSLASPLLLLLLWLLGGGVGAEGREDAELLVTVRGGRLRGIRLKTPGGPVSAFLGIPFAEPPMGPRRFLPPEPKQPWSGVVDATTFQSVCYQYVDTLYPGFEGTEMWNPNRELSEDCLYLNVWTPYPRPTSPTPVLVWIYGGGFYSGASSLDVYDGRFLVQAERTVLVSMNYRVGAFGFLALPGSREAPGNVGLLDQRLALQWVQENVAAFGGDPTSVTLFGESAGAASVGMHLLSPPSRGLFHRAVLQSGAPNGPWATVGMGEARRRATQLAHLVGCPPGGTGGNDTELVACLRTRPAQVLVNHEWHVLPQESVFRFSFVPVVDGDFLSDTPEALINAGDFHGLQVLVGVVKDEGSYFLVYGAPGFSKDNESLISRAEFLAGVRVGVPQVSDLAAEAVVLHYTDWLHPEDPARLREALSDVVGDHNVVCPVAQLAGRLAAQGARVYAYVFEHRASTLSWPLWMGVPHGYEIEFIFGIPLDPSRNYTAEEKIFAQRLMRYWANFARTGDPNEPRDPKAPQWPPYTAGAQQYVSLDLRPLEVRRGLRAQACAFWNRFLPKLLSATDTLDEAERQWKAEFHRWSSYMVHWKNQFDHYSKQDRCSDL

As for `O[C@@H]1[C@@H](O)[C@@H](Cc2cn(Cc3cc(OCc4ccccc4)cc(OCc4ccccc4)c3)nn2)NC[C@H]1O`, at Cholinesterase [1], the midpoint of inhibition, the IC50, lay at 1.2 µM. The inhibition (on Acetylcholinesterase [2]; in assay [3]) was under 50% throughout.

Regarding `O[C@@H]1[C@@H](OCc2ccccc2)[C@@H](Cc2cn(Cc3ccccc3)nn2)NC[C@H]1O`, inhibition on Cholinesterase [1] was half-maximal at 7 µM (IC50). The inhibition (at Acetylcholinesterase [2]; in assay [3]) was under 50% each time.

With `C=CC[C@@H]1[C@H](O)[C@@H](O)[C@H](O)CN1CCCCCCCC`, the IC50 – broadly, the concentration needed to halve the response being measured – against Cholinesterase [1] is 161 µM. The inhibition (on Acetylcholinesterase [2]; in assay [3]) was under 50% throughout.

For `C#CC[C@H]1NC[C@@H](O)[C@H](O)[C@H]1OCc1ccccc1`, the inhibition result (at Acetylcholinesterase [2]; in assay [3]; on Cholinesterase [4]) was “inactive” each time.

Consider `O[C@@H]1[C@@H](O)[C@@H](Cc2cn(CCC(c3ccccc3)c3ccccc3)nn2)NC[C@H]1O`, for which the 50% inhibitory concentration (IC50) against Cholinesterase [1] came out at 15 µM. Further, the inhibition (at Acetylcholinesterase [2]; in assay [3]) was under 50% in each case.

`c1ccc(COC[C@H]2NC[C@H](OCc3ccccc3)[C@@H](OCc3ccccc3)[C@@H]2OCc2ccccc2)cc1`: the values for the IC50 against Acetylcholinesterase [5], against Acetylcholinesterase [6] and at Cholinesterase [1] were 60 µM, 3 µM and 2 µM, respectively.

In the case of `CCCCCCCCCCn1cc(C[C@H]2NC[C@@H](O)[C@H](O)[C@H]2O)nn1`, the inhibition entry (at Acetylcholinesterase [2]; in assay [3]; on Cholinesterase [4]) was “inactive” in each case.

Take `O=C1N[C@H](COCc2ccccc2)[C@@H](OCc2ccccc2)[C@H](OCc2ccccc2)[C@H]1OCc1ccccc1`: the IC50 on Acetylcholinesterase [5] came out at 46 µM; against Acetylcholinesterase [6] it was 2 µM; against Cholinesterase [1], 4 µM.

As to `CCCc1cn(CCCCCCN2C[C@H](O)[C@@H](O)[C@H](O)[C@H]2CO)nn1`, the inhibition result (on Acetylcholinesterase [2]; in assay [3]; on Cholinesterase [4]) was “inactive” each time.

With `C=CC[C@@H]1[C@H](O)[C@@H](OCc2ccccc2)[C@H](O)CN1CCCCCCCC`, the IC50 against Acetylcholinesterase [5] is 22 µM; on Acetylcholinesterase [6], 63 µM; on Cholinesterase [1] it was 3 µM.

Consider `CCCCCCCCO[C@H]1CN(CCCCCCCC)[C@H](CO)[C@H](O)[C@@H]1O`, for which the inhibition result (on Acetylcholinesterase [2]; in assay [3]; at Cholinesterase [4]) was “inactive” each time.

On to `CCCCN1C[C@@H](O)[C@H](O)[C@@H](O)[C@H]1CCC`, for which the inhibition entry (at Acetylcholinesterase [2]; in assay [3]; on Cholinesterase [4]) was “inactive” in each case.

With `C=CC[C@H]1NC[C@@H](O)[C@H](O)[C@H]1O`, the inhibition entry (at Acetylcholinesterase [2]; in assay [3]; at Cholinesterase [4]) was “inactive” each time.

At Cholinesterase [1], `CCC[C@@H]1NC[C@@H](O)[C@H](O)[C@H]1O` displayed an IC50 of 210 µM. The inhibition (at Acetylcholinesterase [2]; in assay [3]) was under 50% in each case.

Take `CCCCCC[C@H]1NC[C@@H](O)[C@H](O)[C@H]1O`: the inhibition result (on Acetylcholinesterase [2]; in assay [3]; on Cholinesterase [4]) was “inactive” in each case.

For the compound `CCCCCCCCO[C@H]1[C@H](O)[C@@H](O)CN(CCCCCCCC)[C@@H]1CO`, the inhibition entry (on Acetylcholinesterase [2]; in assay [3]; at Cholinesterase [4]) was “inactive” throughout.

For `CCCCCCCCC[C@H]1NC[C@@H](O)[C@H](O)[C@H]1O`, the inhibition result (at Acetylcholinesterase [2]; in assay [3]; at Cholinesterase [4]) was “inactive” each time.

Turning to `O[C@@H]1[C@@H](O)[C@@H](Cc2cn(Cc3ccccc3)nn2)NC[C@H]1O`, the inhibition entry (at Acetylcholinesterase [2]; in assay [3]; at Cholinesterase [4]) was “inactive” in each case.

As to `C[Si](C)(C)CCCn1cc(C[C@H]2NC[C@@H](O)[C@H](O)[C@H]2O)nn1`, the inhibition result (at Acetylcholinesterase [2]; in assay [3]; at Cholinesterase [4]) was “inactive” in each case.

As to `CCCCCCCCN1C[C@@H](O)[C@H](O)[C@@H](O)[C@H]1CCC`, the inhibition result (on Acetylcholinesterase [2]; in assay [3]; at Cholinesterase [4]) was “inactive” throughout.

With `CCCCCC[C@H]1N[C@@H](CO)[C@@H](O)[C@H](O)[C@H]1O`, the inhibition entry (at Acetylcholinesterase [2]; in assay [3]; at Cholinesterase [4]) was “inactive” in each case.

On to `C=CC[C@H]1NC[C@@H](O)[C@H](OCc2ccccc2)[C@H]1O`, for which the IC50 against Cholinesterase [1] turned out to be 61 µM. For the same compound, the inhibition (at Acetylcholinesterase [2]; in assay [3]) was under 50% throughout.

Take `CCCCCCO[C@H]1CNC[C@@H](O)[C@@H]1O`: the inhibition entry (at Acetylcholinesterase [2]; in assay [3]; at Cholinesterase [4]) was “inactive” in each case.
